Results as given in patent US20240287368A1, “COMPOSITION CONTAINING REFRIGERANT, USE OF SAME, REFRIGERATOR HAVING SAME, AND METHOD FOR OPERATING SAID REFRIGERATOR” (DAIKIN INDUSTRIES, LTD., priority 2021, published 2024).

Experiments:
[1] = Occupational exposure limit (OEL) and ASHRAE toxicity class of mixed refrigerant, calculated from component OELs and mole fractions; conditions: ANSI/ASHRAE Standard 34-2019; for Occupational exposure limit: center composition of mixed refrigerant
Description: In the present specification, a “toxicity class A” refrigerant means that the occupational exposure limit (OEL) of the mixed refrigerant is 400 ppm or more in accordance with the US ANSI/ASHRAE Standard 34-2019. A “toxicity class B” refrigerant means that the occupational exposure limit of the mixed refrigerant is less than 400 ppm in accordance with the US ANSI/ASHRAE Standard 34-2019.
In the present disclosure, the occupational exposure limit (OEL) of a mixed refrigerant refers to a value evaluated based on the center composition, unless otherwise specified. However, calculation is performed with the OEL of each refrigerant as follows. • R32: 1000 ppm • R152a: 1000 ppm • HFO-1132(E): 350 ppm
The OEL of the center composition of a mixed refrigerant is calculated in accordance with the following formula.
wherein an represents the OEL of each refrigerant compound, and mfn represents the mole fraction of each refrigerant compound.
The occupational exposure limit (OEL value) of each mixed refrigerant was investigated.

[2] = component values used for the calculation; cited from earlier work

Structure (SMILES): F/C=C/F [0-1, trans-1,2-difluoroethylene]
- ASHRAE toxicity class [1]: B (the occupational exposure limit of the mixed refrigerant is less than 400 ppm)
- Occupational exposure limit [1]: 350 ppm
- OEL of each refrigerant [2]: 350 ppm

Structure (SMILES): CC(F)F [0-2, 1,1-difluoroethane]
- ASHRAE toxicity class [1]: A (the occupational exposure limit (OEL) of the mixed refrigerant is 400 ppm or more)
- Occupational exposure limit [1]: 1000 ppm

Structure (SMILES): FCF [0-3, difluoromethane]
- ASHRAE toxicity class [1]: A (the occupational exposure limit (OEL) of the mixed refrigerant is 400 ppm or more)
- Occupational exposure limit [1]: 1000 ppm
- OEL of each refrigerant [2]: 1000 ppm
